Data on three molecules can be found in patent US20050186287A1, “Copper agonist that binds on the copper binding site of APP and/or exerts an inhibiting effect on the release of amyloid Abeta peptide” (priority 1999, published 2005).

For series [1], the system named is APP processing in CHO cells (CUR3, APP695). Nature of the series: APP processing in copper-resistant CHO-CUR3 cells transfected with APP695 (35S-methionine labeling, immunoprecipitation). The format is cell-based, human. The source says: (§1) CHO cells were transfected with a c-myc-tagged APP695 vector (Peraus et al., J. Neurosci 17, page 7714-7724 (1997)) or with the expression vector (pcDNA3) by means of a highly efficient calcium phosphate transfection (Chen et al., Biotechniques 6, pages 632-638 (1988). The pSP65 (Invitrogen company) N-tag-APP 695 DNA was cloned into the vector pcDNA3 (Invitrogen/ITC Biotechnology, Heidelberg) using the SmaI or EcoRV cloning sites. The transfection efficiency was checked by means of immunoprecipitation of APP with polyclonal rabbit-anti-c-myc antibody (18/47; produced against the amino acid sequence EQKLISEEDL of the c-myc sequence; from Eurogentec, Seraing, Belgium) and immunoblots using the monoclonal mouse antibody 22C11 (Boehringer Mannheim) in the “ECL” detection system (Amersham, Braunschweig). The parental CHO-K1 cells and the copper-resistant cell variant CUR3 were cultured at 37° C. in “Eagles” medium (BME), to which 2 mM L-glutamine, 0.1 mM proline, 20 mM HEPES and 10% fetal calf serum (Boehringer Ingelheim) were added. The basic copper concentration was 0.8 μM. CUR3 cells were cultured in a medium with 200 μM of copper added.
(§2) Stably transfected CHO cells of a culture dish (60 mm) were treated for 4 hours with 2 ml essential minimum medium (MEM) which contained no methionine (Sigma company, Munich) and was supplemented with 220 μCi [^35S]methionine (Amersham company, Braunschweig) and 5% N2. The conditioned medium (CM) and the cells were collected and immunorepcipitated. The protein concentrations were determined beforehand by means of a “BioRad” protein assay (Bradford et al., Anal. Biochem. 72, pages 248-254 (1976)) or the radioactively labeled proteins were precipitated with 10% trichloroacetic acid (TCA) and the incorporated [^35S]methionine was measured (Beckman LS 6000IC). The cells were lyzed in extraction buffer which contained 50 mM Tris-CHl (pH value 7.5), 150 mM NaCl, 2 mM EDTA, 2% triton X-100, 2% NP40, 10 μg/ml aprotinin and 10 μg/ml leupeptin. For removing cell debris, the lysate and the medium were centrifuged for 10 minutes at 13,000×g and the medium was adjusted to 25 mM Tris-CHl (pH value 8.5), 1 mM PMSF, 10 μg/ml aprotinin, 10 μg/ml leupeptin, 0.5% triton X-100 and 0.5% NP40. The solubilized proteins were diluted in 100 mM Tris-HCl (pH value 7.5), 300 mM NaCl and 4 mM EDTA at a concentration of 1:2. The supernatants were incubated overnight at 4° C. with APP antibodies with end-over-end rotation in an overhead shaker. In some experiments, the resulting supernatants were then analyzed using Aβ antiserum. Immunocomplexes were obtained with protein A sepharose and analzyed as described in (Weidemann et al., Cell 57, pages 115-126 (1989)).
(§3) For detecting APP, polyclonal rabbit antibodies directed against recombinant Fd-APP770 (antiserum 22734/6 against the amino acid residues 18-687 of APP770 or antiserum 23850/6 against the APP amino acid residues 18-491 (FIG. 1) were diluted at a concentration of 1:500 for precipitation. The antisera were produced in a laboratory according to standard methods known to the person skilled in the art. Aβ, p3.5 and […] were recognized by the polyclonal antibodies 830 (diluation 1:50; Aβ, p3.5 and p3 were likewise precipitated) which had been produced against a synthetic peptide corresponding to the Aβ amino acid residues 1-40 (FIG. 1). Aβ and its derivatives were separated by 10-20% Tris-tricin-polyacrylamide gels and APP using 7% Tris-glycin-polyacrylamide gels or 7% Tris-tricin-polyacrylamide gels. For immunoblots cell extracts and extracellular medium were precipitated with 10% TCA, washed with acetone and dissolved in sample buffer. After the electrophoresis, the gels were further processed as described in (Simons et al., J. Neurosci 16, pages 899-908 (1996)) and quantified with the “Fuji-Bas-PhosphorImager” system. The data were expressed as average values +/− standard deviation and, unless indicated otherwise, they represent the result of at least two separate experiments. […]

In series [2] the test system is APP processing in CHO cells (K1, APP695). Nature of the series: APP processing in parental CHO-K1 cells transfected with APP695 (35S-methionine labeling, immunoprecipitation). The format is cell-based, human.
From the text: as §1, §2, §3

Series [3] has as its system CHO cells stably transfected with human APP695. As to the kind of experiment: Aβ production in CHO cells stably transfected with human APP695, cell variant not given. The series is classed as cell-based. Here is the method:
The employed Zn^2+ concentrations were 10 μM, 50 μM, 100 μM and 200 μM. Thereafter, it was studied from which concentration of Zn(II) the release of the Aβ peptide can be inhibited. The following experiments were carried out for this purpose:
(1) CHO cells which were stably transfected with human APP695 were incubated in MEM medium with the above-mentioned concentrations of Zn(II) (10 to 200 μM in PBS). CHO cells with copper ions (10 to 50 μM in PBS) or without any addition were incubated as controls. The production of Aβ (total), Aβ40 and Aβ42 was determined qualitatively and quantitatively with polyclonal and monoclonal antibodies. APP, Aβ and p3 were detected according to biosynthetic labeling with ^35S methionine as followed. The stably transfected CHO cells, which were incubated as mentioned above with the respective substances, were incubated for four hours with 220 μCi ^35S methionine as follows. […] The protein concentrations were determined beforehand using the protein detection kit from BioRad company and the amount of incorporated radioactivity was determined via scintillation counting. […] The supernatants were incubated with the above mentioned polyclonal APP and Aβ antibodies overnight at 4° C., the immunocomplexes formed were isolated with protein A sepharose and analyzed according to the method described in Ida et al., J. Biol. Chem. 271, pp. 22908-22914.

The subject of series [4] is Aβ peptide with the human sequence. Nature of the series: Aβ production in CNS and blood of transgenic mice given Zn(II). The series is classed as in vivo. Conditions: orally, i.v., i.p., s.c. and i.c. Here is the method:
(2) Primary neurons were isolated from transgenic mice which expressed the Aβ peptide with the human sequence, and their Aβ production was determined as described in (1).
(3) The above mentioned Zn(II) concentrations in PBS were applied to transgenic mice orally, i.v., i.p., s.c. and i.c. (see (2)) and the Aβ production was determined in the CNS and in the blood (which was withdrawn from the caudal vein) as outlined above in (1). The serum obtained from the caudal vein of the mice (150-200 μl) is filled using PBS buffer up to a volume of 500 μl and incubated with 5 μg monoclonal antibody WO-2 (Ida et al., supra) and 20 μl of a 1:1 suspension of protein G sepharose overnight at 4° C. on an overhead shaker. The resulting supernatant is then incubated with polyclonal antibodies (22734/6) against APP and the immunocomplexes are analyzed as described above in (1). The Aβ immunocomplexes are separated by means of 12% bis-tricin Novex gels in accordance with the instructions of the manufacturer and the relevant molecular weight range is analyzed after the transfer of the proteins to a nitrocellulose filter (380 mA at 4° C. for 40 minutes) with the monoclonal antibody WO-2 using the ECL technique according to Ida et al. The result here was also that a decrease of the Aβ production could be obtained from a concentration of 50 μM Zn(II).

The test system of another series is CHO cells. As to the kind of experiment: Viability of CHO cells (LDH outflow). The series is classed as cell-based. Conditions: different copper concentrations, 4 h labeling, entire experiment. Here is the method:
During the labeling period copper chloride or zinc chloride (concentrations: 5 μM to 200 μM) were added to the culturing medium. D(−)-penicillamine (PEN; Sigma), bathocuproin-disulfonate (BC; Aldrich) and 1,10-phenanthroline ([…]; Sigma) were added to the medium up to a final concentration of 100 μM (PEN and BC) or 200 μM (PEN). The viability of the cells was measured by means of the lactate dehydrogenase (LDH) outflow into the culture (41). The LDH outflow was measured as enzyme activity (units/liter) after 2 and 4 hours in the medium of 70% confluent monolayers of CHO cells in “Eagle” medium modified according to Dulbecco (DMEM)
For investigating the regulation of the APP metabolism by copper ions, CHO cells stably transfected with APP695 were labeled for 4 hours with ^35S-labeled methionine in the presence of different copper concentrations and following immunoprecipitation with polyclonal antibodies which detect APP (22734/6) or detect Aβ and p3 ([…]), the secretions of the APP ectodomain, of Aβ and p3 were measured. […] APP695 derivatives released in conditioned medium were detected as bands of 105 and 97.5 kDa (FIG. 3b), they probably differing in that the upper band has a higher content of sialic acids.

Take `[Cl-].[Cl-].[Zn+2]` [Zn(II), zinc chloride]: the “Aβ production reduced by” value was found to be 60% in series [1] (50 μM Zn(II)); 90% in series [1] (100 μM Zn(II)); 99% in series [1] (200 μM Zn(II)); 20% in series [2] (K1 cells, 50 μM Zn(II)); 60% in series [2] (K1 cells, 200 μM Zn(II)). The “secretion of APP” value was “lowered secretion” in series [1] (Zn(II) concentrations above 50 μM) and “lowered secretion” in series [2] (CHO-K1 cells, Zn(II) concentrations above 50 μM). Besides, the “Zn(II) concentration from which Aβ production could be reduced drastically” value in series [3] (CHO cells, MEM medium, 10 to 200 μM Zn(II) tested) was not below 50 µM. For the same molecule, in series [4], the “Zn(II) concentration from which a decrease of the Aβ production could be obtained” value is not below 50 µM.

In the case of `[Cl][Cu][Cl]` [Cu(II), copper chloride], the “APP695, [%] increase/decrease as compared to standard conditions” value in series [1] (50 μM Cu(II), 4 h, cell lysate (cAPP)) stood at 550%; in series [2] (K1 cells, 10 μM Cu(II), 4 h, cell lysate (cAPP)), 295%. The “p3, [%] increase/decrease as compared to standard conditions” value in series [1] (50 μM Cu(II), 4 h, medium) stood at 270%; in series [2] (K1 cells, 10 μM Cu(II), 4 h), 154%. Besides, the “Aβ, [%] increase/decrease as compared to standard conditions” value in series [1] (50 μM Cu(II), 4 h, medium, % of basal concentration) came out at 20%; in series [2] (K1 cells, 10 μM Cu(II), 4 h), 20%. The “SAPP695c, [%] increase/decrease as compared to standard conditions” value in series [1] (50 μM Cu(II), 4 h, soluble APP695 in conditioned medium, relative to basal medium (0.8 μM Cu)) was determined as 265%; in series [2] (K1 cells, 10 μM Cu(II), 4 h, soluble APP695 in medium) it was 475%. Moreover, the Aβ levels entry was “increased drastically” in series [1] (Cu(II) concentrations below the basal level (0.8 μM)) and “increased drastically” in series [2] (K1 cells, Cu(II) concentrations below the basal level (0.8 μM)). Also, the Aβ concentration entry in series [1] (above 100 μM copper) is given as “hardly detectable”. Also, the “secretion of p3” value in series [1] (between 20 μM and 50 μM copper in the medium) turned out to be 270%. In addition, the “Cu(II) concentration at which the increase in sAPP695 reached a maximum” value in series [1] (conditioned medium) is 50 µM; in series [2] (K1 cells, conditioned medium), 10 µM. Further, the “percentage of cAPP” value in series [1] (copper concentration of 50 μM exceeded in the medium) was found to be 550%. The p3.5 concentration result in series [1] (increasing copper (50 μM and above)) is on record as “strongly lowered”. Moreover, the sAPP751/770 level in series [2] (K1 cells, 10 μM copper, endogenous KPI-containing isoforms) was 275%. Besides, the Aβ production entry in series [2] (K1 cells, increasing copper concentrations) was “below the detection limit”. Besides, in the series on CHO cells, the “viability of the cell lines” value was “no reduced viability”.

`[Ca+2]` [Ca(II)]: the Aβ production entry in series [3] (above 200 μM, detection limit reached) is given as “no further decrease”.
